Test results from patent US20100069319A1, “Mercaptopurine derivatives and uses thereof” (priority 2007, published 2010).

Tests used:
Daudi cells [1] = experiment: [3H] thymidine incorporation into DNA (cell proliferation); format: cell-based; conditions: 16 h
Method: The effects of 6-MP derivatives on DNA synthesis were assessed by [Methyl-^3H] thymidine incorporation into DNA. All the experiments performed with cells were carried out at least in triplicates. Adhesive cells (N87, Hela HtTA-1 and MDR HT-29) were seeded at 10,000 cells/well (96-well plate) or 60,000 cells/well (24-well plate). Cells in suspension (B-CLL, Daudi, HL-60, Jurkat, MOLT4 and U937cells) were seeded at 15,000 cells/well (96-wells plate) or 100,000 cells/well (24-wells plate). Adhesive cells were grown at 37° C. for 6 h after seeding, before treatment. For the assessment of [Methyl-^3H] thymidine incorporation, cells were treated with various concentrations of 6-MP derivatives at 37° C. for 16 h in the presence of [Methyl-^3H] thymidine (0.8-1.0 μCi/well). Then, plates were frozen (−20° C., 1 h). Adhesive cells were trypsinized before harvesting. Cells in suspension were directly harvested after thawing out the frozen cells.
The antiproliferative effect of 6-MP and SA-6MP on various cell lines was assessed by determining [^3H] thymidine incorporation into the DNA. 6-MP and SA-6MP at 0-200 μM were applied to Daudi, Hela and N87 cells cultured in 96-well plates in the presence of [^3H] thymidine, as described in Materials and Methods. […] As further shown, the sensitivity to the prodrug is cell type dependent.

MDR HT-29 cells = experiment: Cell death assessment by PI staining, phase-contrast and fluorescence microscopy; format: cell-based, human; conditions: MDR HT-29, 150 μM, 16 h
Method: Cell death was monitored by trypan blue dye exclusion test or propidium iodide (PI) incorporation. Treated cells were incubated with PI (2 μg/ml) for 20 min at 37° C., washed with HBS and examined by fluorescence microscopy or analyzed by flow cytometry using fluorescence-activated cell sorting (Becton Dickinson FACScan Instrument using CellQuest software (BD Bioscience, San Jose, Calif.). Monolayer cells were trypsinized and washed with HBS before FACS analysis.
In order to determine the toxic effect of 6-MP and SA-6MP on multidrug resistant cell lines, MDR HT-29 cells were treated for 16 h with 150 μM of either 6-MP or SA-6MP for 16 h, and were then stained with PI.

B-CLL cells = experiment: Apoptosis by Annexin-Cy5 FACS analysis; format: cell-based, human; conditions: 16 h
Method: Apoptosis analysis in B-CLL cells treated with 6-MP derivatives at different concentration (16 h, at 37° C.) was done by FACS analysis. B-CLL cells were incubated with FITC-CD19 anti-human antibodies (Becton Dickinson, NJ, USA) for 20 minutes at 4° C. After washing off the unbound antibodies, samples were incubated with 5 μl Annexin-Cy5 (Pharmingen, San Diego, Calif., USA) in 10 mM HEPES pH 7.4 buffer containing 140 mM NaCl and 2.5 mM CaCl2, (HBS) for 10 minutes at room temperature. Subsequently, unbound Annexin was washed out and the samples were analyzed using FACScan analyzer (Becton-Dickinson, NJ, USA). The lymphocytes were counted and gated according to their size in forward and side scatters.
The slight decrease in viability of B-CLL human peripheral blood mononuclear cells (PBMC) upon incubation in the presence of 6-MP or SA-6MP was further investigated. B-CLL cells were treated with various concentrations of either 6-MP or SA-6MP and were subjected to flow cytometry analysis, as described in Materials and Methods, in order to monitor cells undergoing apoptosis.

Daudi cells [2] = experiment: XTT cell proliferation assay; format: cell-based; conditions: 16 h
Method: (§1) Cell proliferation was determined by the XTT viability assay in 96-well plates, based on the reduction of tetrazolium salt to soluble formazan compounds by living cells. Cells (10,000-15,000 cells/well) were seeded in a 96-well plate. After 16 h incubation with various concentrations of 6-MP, 6-MPR and their S-allylthio-derivatives, 50 μl of XTT/PMS mixture (50 μM PMS, 0.1% XTT in medium) was added onto the cells. After an incubation period of 3-4 h at 37° C. the absorbance of the samples was measured in an ELISA Reader at 450 nm. SDS (1%, 10 μl/well) was added to reference wells before adding the XTT/PMS solution.
The inhibitory effects of the various prodrugs on Daudi leukemia cell and on monolayer N87 cells were compared. […] XTT was added to the wells for 3 h at 37° C. Cell viability was monitored using an ELISA reader at 450 nm, as described in Materials and Methods.

B-CLL = experiment: Anti-proliferative concentration IC50 (Table 2); format: cell-based; conditions: Homo sapiens, 16 h, tested at 0-100 μM, read-out: Anti-proferative concentration - IC50 (mean ± SE)
Method: as §1
(§2) The results of viability and proliferation were expressed as mean values±SD (n=3-6). For each cell line, the results were analyzed using two-way analysis of variance (ANOVA) followed by Bonferroni's posttest for the factors of the drugs used and their various concentrations, considering p<0.05 as significant. IC50 values (mean±SEM) were obtained from the linear range of the viability curve versus drug concentration (XTT assay).
(§3) In particular, cell in suspension, namely, Daudi, HL-60, U937, Molt-4, Jurkat and B-CLL, were tested at prodrug concentration of 0-100 μM, and monolayer cells, namely, Hela HtTA-1, MDR HT-29 and N87, were tested at prodrug concentration of 0-200 μM. in both cases, cell viability was determined by trypan blue dye exclusion assay. Data are presented in Table 2 hereinbelow for 6MP derivatives-treated for 16 h.

Daudi = experiment: Anti-proliferative concentration IC50 (Table 2); format: cell-based; conditions: Homo sapiens, 16 h, tested at 0-100 μM, read-out: Anti-proferative concentration - IC50 (mean ± SE)
Method: as §1, §2, §3

Molt-4 = experiment: Anti-proliferative concentration IC50 (Table 2); format: cell-based; conditions: Homo sapiens; Molt-4, 16 h, tested at 0-100 μM; read-out: Anti-proferative concentration - IC50 (mean ± SE)
Method: as §1, §2, §3

[3] = Nonactive 6-MP dimers in the medium of treated cell lines
Text: The fact that only a fraction of the thiopurine molecules occurs in its active form explains the need for a high prodrug concentration. The allylthio moiety of the new derivative protects the free SH from such oxidation. Only later, upon entry to the cellular reducing environment is the mixed disulfide SA-6MP cleaved, which renders higher efficiency at lower concentrations. The proposed mechanism for the reaction of SA-6MP with free thiols in the cell is depicted in Scheme 2 hereinafter.

IC50 (Daudi cells [1]; Homo sapiens, [3H] thymidine incorporation, read-out: concentration at which 50% inhibition was observed) [µM] | IC50 (Daudi) [µM] | IC50 (Molt-4) [µM] | nonactive 6-MP dimers (purine-S-S-purine) in the medium [3] | Compound | epithelial-like growth / cell death (MDR HT-29 cells) | percent of apoptotic cells (B-CLL cells; 50 μM) [%] | percent of apoptotic cells (B-CLL cells; 100 μM) [%] | residual proliferation (Daudi cells [2]; 50 μM) | IC50 (B-CLL) [µM] | inhibition of proliferation (Daudi cells [1]; at the same concentrations (0-200 μM)) | percent of apoptotic cells (B-CLL cells; 0-150 μM) | cell proliferation (Daudi cells [2]; 0-100 μM)
~20 | 38.3 ± 3.9 | 8.9 ± 1.2 | not in the medium | C=CCSSc1ncnc2nc[nH]c12 [SA-6MP, S-allylthio-6-mercaptopurine] | epithelial-like growth was inhibited | 38 | 95 | 15-30% | 129 ± 14.2 | – | – | –
– | > 200 | 50.5 ± 6.1 | dimers were indeed found in the medium | Sc1ncnc2nc[nH]c12 [6-MP, 6-Mercaptopurine, reference compound] | no inhibition was observed | – | – | – | > 900 | no inhibition of proliferation | no significant increase in the percent of apoptotic cells | no significant loss of cell proliferation
